1 compound from patent US8729053B2, “Nuclear factor kappa B pathway inhibitor composition and use of same” (The United States of America, as represented by the …, priority 2008, dated 2014) can be followed below.

The structures appear in SMILES notation. Entries after “also recorded” stand apart in the source; their conditions may differ. Structures can show the parent of a compound that is named as a salt.

Assay [1] has as its system COX-2 promoter. The assay can be described thus: COX-2 promoter luciferase reporter assay in HEK293 cells. It counts as cell-based, human. Conditions: TPA 10 ng/ml 18 hours. The procedure: All expression plasmids were transiently transfected into HEK293 cells in a 96-well plate (0.1 μg/well) by using Effectene transfection reagent (Qiagen, Valencia, Calif.) according to the manufacturer's manual. HEK293 cells were maintained in Dulbecco's modified Eagle medium (Sigma, St. Louis, Mo.) supplemented with 10% fetal bovine serum (Atlanta Biologicals, Lawrenceville, Ga.) and incubated at 37° C. in a 5% CO2 incubator. After 24 hrs incubation, the medium was changed to DMEM with 0.2% FBS, and the transfectants were exposed to various concentrations of compound I and TPA (10 ng/ml). Cells were lysed with passive lysis buffer and the luciferase assay was performed using the Firefly-Luciferase reporter assay system (Promega, Madison, Wis.) and MLX Luminometer (Dynex Technology, Chantilly, Va.).
Three different luciferase reporter genes, AP-1 reporter containing four times TRE consensus originated from GCN4 and SRE reporter purchased from Stratagene (La Jolla, Calif.) respectively are as described previously (Suzukawa et al., Environ. Health Perspect., 2002, 110, 865-70). […]
Inhibition of NFκB transactivation would be expected to result in suppressed expression of genes whose transcription depends on NFκB. Quantitative RT-PCR was used to measure endogenous levels of IL-6 mRNA, transcribed from a gene whose transcription depends on NFκB but not AP-1. […]

Assay [2] relates to MCF-7, T47D, and MDA-MB-231 breast cancer cell lines. The assay can be described thus: Matrigel invasion assay. It is filed as cell-based. The procedure:
Breast cancer cell lines, MCF-7, T47D, and MDA-MB-231 were used to measure the effect of compound I on TPA-induced invasion activity using Matrigel Invasion Chamber (BD Bioscience, San Jose, Calif.) according to the manufacturer's protocol. Matrigel-coated chambers containing an 8 μm pore size filter were fitted into a 24-well tissue culture plate. Briefly, breast cancer cells (1×10^5 cells/ml) of each cell line were seeded into […] Matrigel-coated chambers with DMSO, TPA, or TPA plus compound I conditions and incubated for 24 hrs. The media wells for each plate contained only standard growth medium. After 24 hrs the non-invading cells were removed from the upper side of the chamber by cotton tipped applicators. The invaded cells on the bottom side were stained using Diff-Quik staining (Dade Behring, Deerfield, Ill.) and photographed. Three independent results were very similar.
In order to evaluate the potential therapeutic activity of the compound, tests for the biological activity of compound I were performed. […] Following anchorage-independent colony induction in TPA-treated cells without or with compound I, colonies were lysed and measured with CyQuant GR Dye to detect DNA by fluorescence plate reader as a measure of colony count. Total transformed colony numbers were calculated from RFU and cell dose curve of JB6 cells. […]

Regarding `Cc1cc(N)ccc1N=Nc1ccc(S(=O)(=O)CCOS(=O)(=O)O)cc1` [compound I, 2-(4-((4-amino-2-methylphenyl)diazenyl)phenylsulfonyl)ethyl hydrogen sulfate], the “COX-2 luciferase activity” value in assay [1] is “dose-dependent inhibition”. Besides, the “Basal invasive activity” value in assay [2] (MBA-MB-231 cells) is on record as “completely inhibited”. Further, the “TPA-increased invasion” value in assay [2] (three breast cancer cell lines, 24 hrs) is reported as “completely inhibited; also recorded: inhibits”.
